Experimental data taken from patent US20210300943A1, “OGA INHIBITOR COMPOUNDS” (Janssen Pharmaceutica NV, priority 2018, published 2021).

Experiments:
[1] = target: T1, recombinant human Meningioma Expressed Antigen 5 (MGEA5), also referred to as O-GlcNAcase (OGA) (Homo sapiens, UniProt O60502); assay: OGA biochemical assay (inhibition of FM-GlcNAc hydrolysis, fluorescence); conditions: for Emax: maximal effect, read-out: Enzymatic Emax (%); for IC50: read-out: Enzymatic hOGA, pIC50 (converted)
T1 construct: Full length OGA enzyme was purchased at OnGene (cat #TP322411); purchased OnGene (so in the source)
T1 sequence (O60502 1-916): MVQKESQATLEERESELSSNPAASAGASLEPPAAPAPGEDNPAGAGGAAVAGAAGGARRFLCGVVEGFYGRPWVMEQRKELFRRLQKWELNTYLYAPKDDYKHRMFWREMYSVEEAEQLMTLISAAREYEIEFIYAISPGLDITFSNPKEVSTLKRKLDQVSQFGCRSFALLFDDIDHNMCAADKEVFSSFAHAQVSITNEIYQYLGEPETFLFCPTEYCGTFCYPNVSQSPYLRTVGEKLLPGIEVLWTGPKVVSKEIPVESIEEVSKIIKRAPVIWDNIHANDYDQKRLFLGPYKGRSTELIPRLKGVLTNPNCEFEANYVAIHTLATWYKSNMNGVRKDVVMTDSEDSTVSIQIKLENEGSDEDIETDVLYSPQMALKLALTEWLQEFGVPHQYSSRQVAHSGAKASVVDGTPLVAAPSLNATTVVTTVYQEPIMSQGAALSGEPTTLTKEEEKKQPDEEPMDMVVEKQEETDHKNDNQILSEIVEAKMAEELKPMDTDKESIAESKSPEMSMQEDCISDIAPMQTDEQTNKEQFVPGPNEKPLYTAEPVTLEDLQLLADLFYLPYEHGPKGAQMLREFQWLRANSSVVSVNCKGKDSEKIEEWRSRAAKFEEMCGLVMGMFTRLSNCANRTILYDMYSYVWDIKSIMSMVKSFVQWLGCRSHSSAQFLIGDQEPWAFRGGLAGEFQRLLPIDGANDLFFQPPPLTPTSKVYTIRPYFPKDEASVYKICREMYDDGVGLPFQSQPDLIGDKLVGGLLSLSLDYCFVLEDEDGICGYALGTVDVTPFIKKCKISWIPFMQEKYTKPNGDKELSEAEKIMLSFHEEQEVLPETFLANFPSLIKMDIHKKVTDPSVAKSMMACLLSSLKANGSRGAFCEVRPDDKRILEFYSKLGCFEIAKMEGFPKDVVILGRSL
From the text: The assay is based on the inhibition of the hydrolysis of fluorescein mono-β-D-N-Acetyl-Glucosamine (FM-GlcNAc) (Mariappa et al. 2015, Biochem J 470:255) by the recombinant human Meningioma Expressed Antigen 5 (MGEA5), also referred to as O-GlcNAcase (OGA). The hydrolysis FM-GlcNAc (Marker Gene technologies, cat #M1485) results in the formation of β-D-N-glucosamineacetate and fluorescein. The fluorescence of the latter can be measured at excitation wavelength 485 nm and emission wavelength 538 nm. An increase in enzyme activity results in an increase in fluorescence signal. Full length OGA enzyme was purchased at OnGene (cat #TP322411). The enzyme was stored in 25 mM Tris.HCl, pH 7.3, 100 mM glycine, 10% glycerol at −20° C. Thiamet G and GlcNAcStatin were tested as reference compounds (Yuzwa et al. 2008 Nature Chemical Biology 4:483; Yuzwa et al. 2012 Nature Chemical Biology 8:393). The assay was performed in 200 mM Citrate/phosphate buffer supplemented with 0.005% Tween-20. 35.6 g Na2HPO42H2O (Sigma, #C0759) were dissolved in 1 L water to obtain a 200 mM solution. 19.2 g citric acid (Merck, #1.06580) was dissolved in 1 L water to obtain a 100 mM solution. pH of the sodiumphosphate solution was adjusted with the citric acid solution to 7.2. The buffer to stop the reaction consists of a 500 mM Carbonate buffer, pH 11.0. 734 mg FM-GlcNAc were dissolved in 5.48 mL DMSO to obtain a 250 mM solution and was stored at −20° C. OGA was used at a 2 nM concentration and FM-GlcNAc at a 100 uM final concentration. Dilutions were prepared in assay buffer.
50 nl of a compound dissolved in DMSO was dispensed on Black Proxiplate TM 384 Plus Assay plates (Perkin Elmer, #6008269) and 3 μl fl-OGA enzyme mix added subsequently. Plates were pre-incubated for 60 min at room temperature and then 2 μl FM-GlcNAc substrate mix added. […] Plates were briefly centrifuged for 1 min at 1000 rpm and incubate at room temperature for 6 h. To stop the reaction 5 μl STOP buffer were added and plates centrifuge again 1 min at 1000 rpm. Fluorescence was quantified in the Thermo Scientific Fluoroskan Ascent or the PerkinElmer EnVision with excitation wavelength 485 nm and emission wavelength 538 nm.
For analysis a best-fit curve is fitted by a minimum sum of squares method. From this an IC50 value and Hill coefficient was obtained. High control (no inhibitor) and low control (saturating concentrations of standard inhibitor) were used to define the minimum and maximum values.

[2] = target: T2, OGA (Homo sapiens, UniProt O60502); assay: OGA cellular assay (ICC detection of O-GlcNAcylated proteins in HEK293 cells inducible for P301L mutant human Tau); type: cell-based; conditions: for Emax: HEK293, HEK293 cells inducible for P301L mutant human Tau, maximal effect, Thiamet G 200 uM as maximum; for EC50: HEK293 cells inducible for P301L mutant human Tau, 6 hours incubation, read-out: Cellular hOGA, pEC50 (converted)
T2 construct: endogenous in cells; host or cells: HEK293 cells inducible for P301L mutant human Tau (2N4R)
T2 sequence (O60502 1-916): T1 sequence (O60502 1-916)
Method: HEK293 cells inducible for P301L mutant human Tau (isoform 2N4R) were established at Janssen. Thiamet-G was used for both plate validation (high control) and as reference compound (reference EC50 assay validation). OGA inhibition is evaluated through the immunocytochemical (ICC) detection of O-GlcNAcylated proteins by the use of a monoclonal antibody (CTD110.6; Cell Signaling, #9875) detecting 0-GlcNAcylated residues as previously described (Dorfmueller et al. 2010 Chemistry & biology, 17:1250). Inhibition of OGA will result in an increase of O-GlcNAcylated protein levels resulting in an increased signal in the experiment. Cell nuclei are stained with Hoechst to give a cell culture quality control and a rough estimate of immediate compounds toxicity, if any. ICC pictures are imaged with a Perkin Elmer Opera Phenix plate microscope and quantified with the provided software Perkin Elmer Harmony 4.1.
Cells were propagated in DMEM high Glucose (Sigma, #D5796) following standard procedures. 2 days before the cell assay cells are split, counted and seeded in Poly-D-Lysine (PDL) coated 96-wells (Greiner, #655946) plate at a cell density of 12,000 cells per cm^2 (4,000 cells per well) in 100 μl of Assay Medium (Low Glucose medium is used to reduce basal levels of GlcNAcylation) (Park et al. 2014 The Journal of biological chemistry 289:13519). At the day of compound test medium from assay plates was removed and replenished with 90 μl of fresh Assay Medium. 10 μl of compounds at a 10 fold final concentration were added to the wells. Plates were centrifuged shortly before incubation in the cell incubator for 6 hours. DMSO concentration was set to 0.2%. Medium is discarded by applying vacuum. For staining of cells medium was removed and cells washed once with 100 μl D-PBS (Sigma, #D8537). From next step onwards unless other stated assay volume was always 50 μl and incubation was performed without agitation and at room temperature. Cells were fixed in 50 μl of a 4% paraformaldehyde (PFA, Alpha aesar, #043368) PBS solution for 15 minutes at room temperature. […] Before analysis samples were washed 2 times manually for 5 minutes in ICC base buffer.
Imaging is performed using Perkin Elmer Phenix Opera using a water 20× objective and recording 9 fields per well. Intensity readout at 488 nm is used as a measure of O-GlcNAcylation level of total proteins in wells. To assess potential toxicity of compounds nuclei were counted using the Hoechst staining. IC50-values are calculated using parametric non-linear regression model fitting. As a maximum inhibition Thiamet G at a 200 uM concentration is present on each plate. In addition, a concentration response of Thiamet G is calculated on each plate.

SMILES	Emax [1]	IC50 [1]	Emax [2]	EC50 [2]
Cc1cc(C[C@H]2CCCN(C(C)c3ccc4c(c3)OCC4)C2)cc(C)n1 (mixture of isomers) [Product 47]	103%	3.98 nM	81%	15.8 nM
Cc1cc(C[C@H]2CCCN(C(C)c3ccc4c(c3)OCCN4C)C2)cc(C)n1 (mixture of isomers) [Product 49]	103%	126 nM	–	> 1000 nM
Cc1cc(C[C@H]2CCCN(C(C)c3cnc4c(c3)OCCN4C)C2)cc(C)n1 (mixture of isomers) [Product 56]	102%	15.8 nM	78%	316 nM
Cc1cc(C[C@H]2CCCN(C(C)c3cnc4c(c3)OCC4)C2)cc(C)n1 (mixture of isomers) [Product 57]	101%	12.6 nM	78%	158 nM
Cc1cc(C[C@H]2CCCN(C(C)c3ccc4c(n3)OCC(=O)N4)C2)cc(C)n1 (mixture of isomers) [Product 59]	102%	126 nM	23%	> 1000 nM
Cc1cc(C[C@H]2CCCN(C(C)c3ccc4c(n3)OCCO4)C2)cc(OC(F)(F)F)n1 (mixture of isomers) [Product 67]	102%	7.94 nM	89%	79.4 nM
Cc1cc(C[C@H]2CCCN(C(C)c3cc4c(cc3F)OCCO4)C2)cc(C(F)(F)F)n1 (mixture of isomers) [Product 68]	102%	6.31 nM	79%	39.8 nM
Cc1cc(C[C@H]2CCCN(C(C)c3ccc4c(n3)OCCO4)C2)cc(C(F)(F)F)n1 (mixture of isomers) [Product 69]	102%	12.6 nM	90%	50.1 nM
Cc1cc([C@H]2CCCN([C@@H](C)c3ccc4c(c3)OCC4)C2)cc(C)n1 (racemic) [Product 4]	103%	5.01 nM	70%	20 nM
COc1cc(NC[C@H]2CCCN(C(C)c3ccc4c(n3)OCCO4)C2)cc(C)n1 (mixture of isomers) [Product 24]	102%	7.94 nM	69%	7.94 nM
Cc1cc(C[C@H]2CCCN(C(C)c3cc4c(cc3F)OCCO4)C2)cc(C)n1 (mixture of isomers) [Product 40]	101%	2 nM	96%	15.8 nM
Cc1cc(C[C@H]2CCCN(C(C)c3cnc4c(c3)OCCN4)C2)cc(C)n1 (mixture of isomers) [Product 50]	103%	10 nM	85%	39.8 nM
COc1cc(OC[C@H]2CCCN([C@H](C)c3ccc4c(n3)OCCO4)C2)cc(C)n1 (racemic) [Product 110]	102%	12.6 nM	68%	316 nM
Cc1cc(OC[C@H]2CCCN(C(C)c3nc4c(cc3F)CCO4)C2)cc(C)n1 (mixture of isomers) [Product 178]	95%	2.51 nM	104%	2.51 nM

More lines, now with the values ahead:

Emax [1]	IC50 [1]	Emax [2]	EC50 [2]	SMILES
102%	7.94 nM	86%	31.6 nM	Cc1cc(OC[C@H]2CCCN(C(C)c3ccc4c(n3)OCCO4)C2)cc(C)n1 (mixture of isomers) [Product 19]
101%	7.94 nM	69%	31.6 nM	COc1cc(C[C@H]2CCCN(C(C)c3ccc4c(n3)OCCO4)C2)cc(C)n1 (mixture of isomers) [Product 63]
98%	12.6 nM	29%	316 nM	Cc1cc(CO[C@H]2CCCN([C@H](C)c3ccc4c(n3)OCCO4)C2)cc(C)n1 (mixture of isomers) [Product 111]
98%	200 nM	8%	> 1000 nM	Cc1cc(CO[C@@H]2CCCN([C@H](C)c3ccc4c(n3)OCCO4)C2)cc(C)n1 (mixture of isomers) [Product 112]
100%	100 nM	55%	794 nM	Cc1cc(C2CCCN([C@H](C)c3ccc4c(n3)OCCO4)C2)nc(C)n1 (mixture of isomers) [Product 113]
100%	15.8 nM	66%	158 nM	Cc1cc(OC[C@H]2CCCN([C@H](C)c3ccc4c(n3)OCCO4)C2)nc(C)n1 (mixture of isomers) [Product 114]
101%	3.16 nM	91%	20 nM	Cc1cc(C[C@H]2CCCN(C(C)c3ccc4c(n3)OCCO4)C2)cc(C)n1 (mixture of isomers) [Product 44]
